Measured values from patent publication US20220273659A1, “HETEROCYCLIC COMPOUNDS AS KINASE INHIBITORS” (NUVATION BIO INC., priority 2019, published 2022).
Like-named read-outs stand apart in the source and are kept apart here.

Assays:
CDK1 (cyclin B) = target: T1, CDK1 (cyclin B) (Homo sapiens, UniProt P06493); experiment: Z'-LYTE kinase assay; assay type: biochemical
T1 construct: purchased Invitrogen Life Technologies (assay service)
Protocol: The plates were shaken for 30 seconds, and incubated for 60 minutes at room temperature. […] The plates were read on fluorescence plate reader with Dual emission at 445 nm and 520 nm.
The following equations were used for Z′-LYTE™ Screening Assay Data Analysis.

[1] = tested on: DU4475 breast carcinoma cells; experiment: Cancer cell proliferation assay, single agent (cell viability); assay type: cell-based; conditions: Homo sapiens, DU-4475; Table 4; Rb negative; treatment 144 Hr with medium change at 72 Hr; Cell Titer-Glo or resazurin
In short: (§1)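 Cells seeded day 1, then exposed on day 2 to 7–9 compound concentrations (e.g. 1.1 nM–10 μM); BT-549 for 24 h, MCF-7 and DU4475 for 144 h with medium change at 72 h. Viability by CellTiter-Glo or resazurin; IC50 from variable-slope sigmoidal fit.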

[2] = tested on: MCF-7 breast adenocarcinoma cells; experiment: as above; assay type: cell-based; conditions: Homo sapiens, MCF7, Table 4; Rb positive; treatment 144 Hr with medium change at 72 Hr; Cell Titer-Glo or resazurin
In short: as §1

CDK2 (cyclin A) = target: T2, CDK2 (cyclin A) (Homo sapiens, UniProt P24941); experiment: Z'-LYTE kinase assay; assay type: biochemical
T2 construct: purchased Invitrogen Life Technologies (assay service)
Protocol: IC50 values of compounds against CDK2 (cyclin A) were determined by Z′-LYTE™ These screening assays were performed at Invitrogen Life Technologies (Grand Island, N.Y.) on a low volume NBS, black 384-well plate (#4514, Corning). 0.1 μL of 100×test compound in 100% DMSO (at specific solutions) was mixed with 2.4 μL of Kinase Buffer (50 mM HEPES pH 7.5, 0.01% BRIJ-35, 10 mM MgCl2, 1 mM EGTA), 5 μL of 2× Kinase (1.22-10.3 ng CDK2/cyclin A)/Peptide (2 μM Ser/Thr 12), and 2.5 μL of 4×ATP solution (31 μM). The plates were shaken for 30 seconds, and incubated for 60 minutes at room temperature. Development Reagent Solution (5 μL of 1:1024 dilution) was added to the plates followed with another 30-second plate shake and the plates were further incubated at room temperature for one hour. The plates were read on fluorescence plate reader with Dual emission at 445 nm and 520 nm.
The following equations were used for Z′-LYTE™ Screening Assay Data Analysis. Percent inhibition (100-% activity) was fitted to the “four-parameter logistic model” in XLfit for determination of IC50 values.

CDK4 = target: T3, CDK4 (Homo sapiens, UniProt P11802); experiment: In vitro kinase inhibition IC50, luminescence (ADP Glo), retinoblastoma substrate; assay type: biochemical; conditions: read-out: CDK4/D1 IC50
T3 construct: purchased Invitrogen PR8064A
In short: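 CDK4 enzyme (5 nM, Invitrogen) was combined with test compound and a mix of retinoblastoma substrate (1 μM) plus ATP (25 μM) in kinase buffer, 30 μL/well in 96-well half area white plates. After 2H at room temperature, ADP Glo reagent stopped the reaction for 45 min, then detection reagent was added and luminescence was read.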

CDK6 = target: T4, CDK6 (Homo sapiens, UniProt Q00534); experiment: as above; assay type: biochemical; conditions: read-out: CDK6/D1 IC50
T4 construct: purchased Invitrogen PR8422B
In short: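 Recombinant CDK6 (5 nM) with retinoblastoma substrate (1 μM) and 25 μM ATP, compound at final 0.1–200 nM, incubated 2 h at room temperature. ADP formed detected by ADP-Glo luminescence. IC50 from four-parameter logistic fit of percent inhibition.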

FMS kinase = target: T5, FMS kinase (Homo sapiens, UniProt P07333); experiment: LanthaScreen Eu Kinase Binding Assay (ATP, fluorescent-PolyGT substrate); assay type: biochemical
T5 construct: purchased Invitrogen (Life Technologies)
In short: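 Kinase (1.25 nM) preincubated 10 min with 3-fold compound dilutions, then ATP 10 μM and fluorescent PolyGT substrate 200 nM added for 1 h in the dark at room temperature. Stopped with Tb-antibody (4 nM) and EDTA 20 mM; TR-FRET at 340 nm excitation, 495/520 nm emission; IC50 from four-parameter fit.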

T5 sequence (P07333 20-972): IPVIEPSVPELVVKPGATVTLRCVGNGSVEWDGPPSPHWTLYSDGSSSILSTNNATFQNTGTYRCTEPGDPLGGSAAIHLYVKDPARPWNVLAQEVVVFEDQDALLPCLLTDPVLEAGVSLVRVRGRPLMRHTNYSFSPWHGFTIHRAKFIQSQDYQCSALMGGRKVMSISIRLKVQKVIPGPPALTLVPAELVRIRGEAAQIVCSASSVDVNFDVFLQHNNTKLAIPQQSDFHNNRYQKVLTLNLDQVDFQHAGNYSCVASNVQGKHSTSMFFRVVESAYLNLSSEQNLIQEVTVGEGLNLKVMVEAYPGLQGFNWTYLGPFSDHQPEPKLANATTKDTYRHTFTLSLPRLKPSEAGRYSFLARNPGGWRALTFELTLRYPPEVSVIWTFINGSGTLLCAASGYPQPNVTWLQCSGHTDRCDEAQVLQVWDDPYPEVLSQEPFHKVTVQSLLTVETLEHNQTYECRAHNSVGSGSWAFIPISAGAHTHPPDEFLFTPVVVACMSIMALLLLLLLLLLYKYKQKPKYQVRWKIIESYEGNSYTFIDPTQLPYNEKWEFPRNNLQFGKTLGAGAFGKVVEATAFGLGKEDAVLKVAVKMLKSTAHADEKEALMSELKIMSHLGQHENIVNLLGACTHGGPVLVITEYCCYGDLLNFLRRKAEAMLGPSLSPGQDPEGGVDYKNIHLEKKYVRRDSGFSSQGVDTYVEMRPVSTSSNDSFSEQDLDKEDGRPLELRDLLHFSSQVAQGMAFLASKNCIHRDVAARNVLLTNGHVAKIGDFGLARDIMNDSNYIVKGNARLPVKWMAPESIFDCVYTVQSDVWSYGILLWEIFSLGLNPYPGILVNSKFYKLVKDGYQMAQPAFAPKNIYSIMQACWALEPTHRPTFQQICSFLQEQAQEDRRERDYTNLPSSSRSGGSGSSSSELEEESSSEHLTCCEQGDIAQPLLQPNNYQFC
T4 sequence (Q00534 whole entry): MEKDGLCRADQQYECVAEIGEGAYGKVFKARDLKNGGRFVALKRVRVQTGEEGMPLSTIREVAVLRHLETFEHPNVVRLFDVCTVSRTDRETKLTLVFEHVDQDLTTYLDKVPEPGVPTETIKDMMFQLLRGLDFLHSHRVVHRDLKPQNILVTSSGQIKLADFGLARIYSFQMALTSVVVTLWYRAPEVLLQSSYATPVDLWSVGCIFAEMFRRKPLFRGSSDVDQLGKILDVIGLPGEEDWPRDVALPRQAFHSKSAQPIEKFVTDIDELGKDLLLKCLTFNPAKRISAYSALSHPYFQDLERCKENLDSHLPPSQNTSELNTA
T4 sequence (P24385 whole entry partner): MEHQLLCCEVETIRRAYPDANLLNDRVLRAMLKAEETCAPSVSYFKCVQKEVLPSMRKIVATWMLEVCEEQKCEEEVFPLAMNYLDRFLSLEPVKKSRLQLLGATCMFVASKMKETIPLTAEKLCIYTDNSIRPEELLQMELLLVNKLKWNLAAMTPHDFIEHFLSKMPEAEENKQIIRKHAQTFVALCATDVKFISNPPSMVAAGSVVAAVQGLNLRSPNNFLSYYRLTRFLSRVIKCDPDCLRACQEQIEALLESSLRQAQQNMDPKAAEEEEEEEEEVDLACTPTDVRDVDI
T1 sequence (P06493 whole entry): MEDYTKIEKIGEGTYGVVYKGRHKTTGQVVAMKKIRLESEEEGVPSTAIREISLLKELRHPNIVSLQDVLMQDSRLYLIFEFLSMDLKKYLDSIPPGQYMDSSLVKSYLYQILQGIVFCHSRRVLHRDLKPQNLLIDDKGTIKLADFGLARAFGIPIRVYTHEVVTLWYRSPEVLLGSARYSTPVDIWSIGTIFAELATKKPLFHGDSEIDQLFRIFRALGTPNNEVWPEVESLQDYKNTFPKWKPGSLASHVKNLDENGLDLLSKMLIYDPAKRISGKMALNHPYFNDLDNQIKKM
T1 sequence (P14635 whole entry partner): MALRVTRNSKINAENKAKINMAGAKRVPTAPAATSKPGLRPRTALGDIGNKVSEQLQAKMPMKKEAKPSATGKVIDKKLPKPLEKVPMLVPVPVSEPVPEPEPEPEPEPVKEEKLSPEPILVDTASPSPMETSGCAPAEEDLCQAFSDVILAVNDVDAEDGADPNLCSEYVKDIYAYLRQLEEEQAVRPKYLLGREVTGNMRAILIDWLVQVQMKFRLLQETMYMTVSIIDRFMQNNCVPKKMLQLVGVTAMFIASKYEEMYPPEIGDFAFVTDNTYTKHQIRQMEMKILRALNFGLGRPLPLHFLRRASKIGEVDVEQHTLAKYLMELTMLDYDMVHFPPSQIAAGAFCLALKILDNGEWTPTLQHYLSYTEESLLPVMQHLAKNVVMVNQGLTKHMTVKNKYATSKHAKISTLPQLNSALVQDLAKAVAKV
T3 sequence (P11802 whole entry): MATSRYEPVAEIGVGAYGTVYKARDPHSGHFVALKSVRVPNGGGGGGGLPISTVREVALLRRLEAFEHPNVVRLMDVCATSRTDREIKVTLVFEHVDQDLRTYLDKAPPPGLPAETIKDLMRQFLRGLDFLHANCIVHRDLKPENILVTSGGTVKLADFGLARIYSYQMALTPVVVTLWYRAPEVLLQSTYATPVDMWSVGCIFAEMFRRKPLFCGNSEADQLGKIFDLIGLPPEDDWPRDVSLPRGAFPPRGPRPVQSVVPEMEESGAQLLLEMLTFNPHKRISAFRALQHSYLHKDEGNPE
T3 sequence (P24385 whole entry partner): as the sequence (P24385 whole entry partner) above

IC50 (CDK1 (cyclin B); read-out: CDK1/B IC50) [nM]	IC50 [1] [nM]	IC50 [2] [nM]	IC50 (CDK2 (cyclin A)) [nM]	IC50 (CDK4) [nM]	IC50 (CDK6) [nM]	IC50 (FMS kinase) [nM]	IC50 (CDK1 (cyclin B)) [nM]	Structure (SMILES)
534	320	120	176	12	12	3.5		N#Cc1cc2cnc(Nc3ccc4c(c3)CCNC4)nc2n([C@H]2C[C@@H]3CC[C@H]2C3)c1=O (relative stereo) [Compound No. 354, 8-((S,2S,4R)-bicyclo[2.2.1]heptan-2-yl)-7-oxo-2-(1,2,3,4-tetrahydroisoquinolin-6-ylamino)-7,8-dihydropyrido[2,3-d]pyrimidine-6-carbonitrile]
1530	1240	405	668	> 173	> 174	3		N#Cc1cc2cnc(Nc3ccc4c(c3)CCNC4)nc2n(CC2CCCCC2)c1=O [Compound No. 347, 8-(cyclohexylmethyl)-7-oxo-2-((1,2,3,4-tetrahydroisoquinolin-6-yl)amino)-7,8-dihydropyrido[2,3-d]pyrimidine-6-carbonitrile]
	6840	725	219	62	55	31	1380	CS(=O)(=O)N1CCC(Nc2ncc3cc(C#N)c(=O)n(CC4CCCCC4)c3n2)CC1 [Compound No. 348, 8-(cyclohexylmethyl)-2-((1-(methylsulfonyl)piperidin-4-yl)amino)-7-oxo-7,8-dihydropyrido[2,3-d]pyrimidine-6-carbonitrile]
2270	> 30000	> 10000	235	> 200	> 200	> 5000		CS(=O)(=O)N1CCC(Nc2ncc3cc(C#N)c(=O)n(C4COCC4O)c3n2)CC1 (stereo not shown) [Compound No. 350, 8-(4-hydroxytetrahydrofuran-3-yl)-2-((1-(methylsulfonyl)piperidin-4-yl)amino)-7-oxo-7,8-dihydropyrido[2,3-d]pyrimidine-6-carbonitrile]
> 4170	> 10000		705	> 200	> 200	1800		CS(=O)(=O)N1CC(Nc2ncc3cc(C#N)c(=O)n(C4CCCC4)c3n2)C1 [Compound No. 372, 8-cyclopentyl-2-((1-(methylsulfonyl)azetidin-3-yl)amino)-7-oxo-7,8-dihydropyrido[2,3-d]pyrimidine-6-carbonitrile]
	200		42	4	4	1440	912	Cn1ccc(S(=O)(=O)N2CCC(Nc3ncc4cc(C#N)c(=O)n(C5CCCC5)c4n3)CC2)n1 [Compound No. 373, 8-cyclopentyl-2-((1-((1-methyl-1H-pyrazol-3-yl)sulfonyl)piperidin-4-yl)amino)-7-oxo-7,8-dihydropyrido[2,3-d]pyrimidine-6-carbonitrile]
	690		70	5	6	838	667	COCCS(=O)(=O)N1CCC(Nc2ncc3cc(C#N)c(=O)n(C4CCCC4)c3n2)CC1 [Compound No. 374, 8-cyclopentyl-2-((1-((2-methoxyethyl)sulfonyl)piperidin-4-yl)amino)-7-oxo-7,8-dihydropyrido[2,3-d]pyrimidine-6-carbonitrile]
1310	615		303	132	147	13		N#Cc1cc2cnc(Nc3ccc4c(c3)CCNC4)nc2n(-c2c(F)cccc2F)c1=O [Compound No. 375, 8-(2,6-difluorophenyl)-7-oxo-2-((1,2,3,4-tetrahydroisoquinolin-6-yl)amino)-7,8-dihydropyrido[2,3-d]pyrimidine-6-carbonitrile]
	2440		170	159	58	402	1460	CS(=O)(=O)N1CCC(Nc2ncc3cc(C#N)c(=O)n(-c4c(F)cccc4F)c3n2)CC1 [Compound No. 376, 8-(2,6-difluorophenyl)-2-((1-(methylsulfonyl)piperidin-4-yl)amino)-7-oxo-7,8-dihydropyrido[2,3-d]pyrimidine-6-carbonitrile]
420	365		25	15	11	27		N#Cc1cc2cnc(Nc3ccc(S(N)(=O)=O)cc3)nc2n(C2CCCC2)c1=O [Compound No. 377, 4-((6-cyano-8-cyclopentyl-7-oxo-7,8-dihydropyrido[2,3-d]pyrimidin-2-yl)amino)benzenesulfonamide]
	670		30	3	5	402	325	N#Cc1cc2cnc(NC3CCN(S(=O)(=O)CCCCCCO)CC3)nc2n(C2CCCC2)c1=O [Compound No. 378, 8-cyclopentyl-2-((1-((6-hydroxyhexyl)sulfonyl)piperidin-4-yl)amino)-7-oxo-7,8-dihydropyrido[2,3-d]pyrimidine-6-carbonitrile]
	2440	145	8	11	6		233	N#Cc1cc2cnc(NC3CCN(S(=O)(=O)N4CCOCC4)CC3)nc2n(C2CCCC2)c1=O [Compound No. 383, 8-cyclopentyl-2-(1-(morpholinosulfonyl)piperidin-4-ylamino)-7-oxo-7,8-dihydropyrido[2,3-d]pyrimidine-6-carbonitrile]
	5680	1600	28	24	20		585	CS(=O)(=O)N1CCC(Nc2ncc3cc(C#N)c(=O)n([C@H]4CCC(F)(F)C4)c3n2)CC1 [Compound No. 384, (S)-8-(3,3-difluorocyclopentyl)-2-(1-(methylsulfonyl)piperidin-4-ylamino)-7-oxo-7,8-dihydropyrido[2,3-d]pyrimidine-6-carbonitrile]
	> 10000	2820	96	49	65		2620	CS(=O)(=O)N1CCC(Nc2ncc3cc(C#N)c(=O)n([C@@H]4CCC(F)(F)C4)c3n2)CC1 [Compound No. 385, (R)-8-(3,3-difluorocyclopentyl)-2-(1-(methylsulfonyl)piperidin-4-ylamino)-7-oxo-7,8-dihydropyrido[2,3-d]pyrimidine-6-carbonitrile]
	870	270	9.5	5	4		118	CS(=O)(=O)N1CCC(Nc2ncc3cc(C#N)c(=O)n([C@@H]4C[C@H]5CC[C@@H]4C5)c3n2)CC1 [Compound No. 386, 8-((1R,2R,4S)-bicyclo[2.2.1]heptan-2-yl)-2-(1-(methylsulfonyl)piperidin-4-ylamino)-7-oxo-7,8-dihydropyrido[2,3-d]pyrimidine-6-carbonitrile]
	7060	580	88	20	17		1100	CS(=O)(=O)N1CCC(Nc2ncc3cc(C#N)c(=O)n([C@H]4C[C@@H]5CC[C@H]4C5)c3n2)CC1 [Compound No. 387, 8-((1S,2S,4R)-bicyclo[2.2.1]heptan-2-yl)-2-(1-(methylsulfonyl)piperidin-4-ylamino)-7-oxo-7,8-dihydropyrido[2,3-d]pyrimidine-6-carbonitrile]
